Experimental data published in publication PMC12841663, “Antiprotozoal Potential of Cultivated Geranium macrorrhizum Against Giardia duodenalis, Trichomonas gallinae and Leishmania infantum” (International Journal of Molecular Sciences, 2026).
In brackets after ≈: the same amount, converted by molar mass.

Legend:
[1] = system: G. duodenalis trophozoites; test: Anti-Giardia activity assay (MTT viability); type: cell-based; conditions: pure compounds
Description: Anti-Giardia (AG) activity assays were conducted on G. duodenalis trophozoites from the ATCC® 30957 strain (assemblage A), using flat-bottom microwell plates in quadruplicate. […] Incubation was carried out for 24 h at 37 °C. EOs and pure compounds were solved in DMSO (Sigma, Madrid, Spain) (<1% final concentration). […] Trophozoites/promastigotes viability was assessed using the modified MTT colorimetric assay, as described previously in the literature, with results further validated by microscopic examination. The plate was analyzed in a spectrophotometer at a wavelength of 570 nm. The percentage of antiparasitic activity was calculated as growth inhibition, using the following formula: % AT = 100 - [(Ap - Ab) ÷ (Ac - Ab)] × 100, where Ap is the absorbance of the tested product, Ab the absorbance of the blank and Ac the absorbance of the control wells (culture without treatment). […] Metronidazole (Acros Organics, Madrid, Spain) served as a reference compound for anti-Giardia activity and Anti-Trichomonas activity and amphotericin B for anti-Leishmania activity. Data was analyzed using STATGRAPHICS Centurion XIX ([…].com) (Statgraphics Technologies, Inc., The Plains, VA, USA). The mammalian cells and trophozoites viability were tested with each compound in a dose-response experiment to calculate their relative potency (CC50 or IC50 value, respectively).

[2] = system: T. gallinae trophozoites; test: Anti-Trichomonas activity assay (MTT viability); type: cell-based; conditions: pure compounds
Description: The anti-Trichomonas (AT) activity assay utilized T. gallinae trophozoites from an isolate obtained from a wood pigeon by Dr. […] EOs and pure compounds were solved in DMSO (Sigma, Madrid, Spain) (<1% final concentration). […] Trophozoites/promastigotes viability was assessed using the modified MTT colorimetric assay, as described previously in the literature, with results further validated by microscopic examination. The plate was analyzed in a spectrophotometer at a wavelength of 570 nm. The percentage of antiparasitic activity was calculated as growth inhibition, using the following formula: % AT = 100 - [(Ap - Ab) ÷ (Ac - Ab)] × 100, where Ap is the absorbance of the tested product, Ab the absorbance of the blank and Ac the absorbance of the control wells (culture without treatment). […] Metronidazole (Acros Organics, Madrid, Spain) served as a reference compound for anti-Giardia activity and Anti-Trichomonas activity and amphotericin B for anti-Leishmania activity. Data was analyzed using STATGRAPHICS Centurion XIX ([…].com) (Statgraphics Technologies, Inc., The Plains, VA, USA). The mammalian cells and trophozoites viability were tested with each compound in a dose-response experiment to calculate their relative potency (CC50 or IC50 value, respectively).

[3] = system: intracellular amastigotes of L. infantum; test: Infection index of DH82 macrophages infected with L. infantum (intracellular amastigotes); type: cell-based, Leishmania infantum; conditions: for nº Amastigotes/Infected Cell / % Infected Cells / Infection Index: DH82 macrophages, 48 h
Description: Anti-Leishmania (AL) activity was assessed on L. infantum promastigotes (MCAN/ES/98/LLM-722), kindly provided by Dr. J.M. Requena from CBM-CSIC, as well as on L. infantum (M/CAN/ES/96/BCN150 zymodeme MON-1), strain isolated from a dog with active visceral leishmaniasis. L. infantum promastigotes (MCAN/ES/98/LLM-722) were cultured in RPMI medium supplemented with 15% FBS and 10 μg/mL of hemin (Acros Organics, Madrid, Spain), grown at 26 °C. Promastigotes in logarithmic growth were seeded in 96-well flat-bottom plates at a volume of 100 μL of culture per well and incubated for 48 h. Promastigotes for macrophage infection (M/CAN/ES/96/BCN150 zymodeme MON-1) were maintained at 26 °C in Schneider’s insect medium (Lonza, Basel, Switzerland) supplemented with 10% FBS and 100 U/mL penicillin and 100 μg/mL streptomycin (Lonza, Basel, Switzerland) (Pen-Strep). Promastigotes in the stationary phase of growth (5–6 days) were washed twice in phosphate-buffered saline at 2700× g for 10 min at 22 °C and employed for macrophage infection.
Canine DH82 (ATCC®-CRL-10389TM) macrophages were maintained in Dulbecco’s modified Eagle’s medium (DMEM) (Thermo Fisher Scientific, Waltham, MA, USA) supplemented with 10% heat-inactivated FBS (Thermo Fisher Scientific, Waltham, MA, USA), and Pen-Strep at 37 °C in 5% CO2.
DH82 cells (5 × 10^4 per well) were seeded in LabTek culture chamber slides (Thermo Scientific, Nunc™, Roskilde, Denmark) and incubated overnight at 37 °C and 5% CO2. On the following day, macrophages were infected with L. infantum stationary phase-promastigotes at a ratio of 5:1 parasites/macrophage and after 4 h of incubation at 37 °C, a time point that reflects initial infection, extracellular promastigotes were removed by washing. Germacrone was added at varying concentrations (10, 50 and 100 μg/mL) and macrophages were incubated in fresh medium for 48 h at 37 °C and 5% CO2. After Giemsa staining, cells were mounted with Vitro-Clud (Deltalab SLU, Barcelona, Spain), and 400 macrophages were counted in duplicate in a microscope Olympus BX41 (Olympus Corporation, Tokyo, Japan). The percentage of infected macrophages and the mean of the number of amastigotes per infected macrophage (defined as the intensity of infection) were evaluated. The infection index was calculated by multiplication of both parameters to account for the overall parasite load.

CC(C)=C1C/C=C(\C)CC/C=C(\C)CC1=O [Compound 2, germacrone]
IC50 [1]: 55.2 µg/mL (≈ 253 µM)
IC50 [2]: 45.8 µg/mL (≈ 210 µM)
nº Amastigotes/Infected Cell ([3]; 10 µg/mL): 2.4 ± 1.1
% Infected Cells ([3]; 10 µg/mL, control of infection 42.8, listed as Germacrone (2)): 25.9 ± 8.3 %
% Infected Cells ([3]; 10 µg/mL, control of infection 42.8, listed as germacrone (2)): 25.9%
Infection Index ([3]; 10 µg/mL, control of infection 152.1, listed as Germacrone (2)): 61.0 ± 9.4
Infection Index ([3]; 10 µg/mL, control of infection 152.1, listed as germacrone (2)): 61.0
reduction of the infection index ([3]; 10 µg/mL, from 152.1 (control) to 61.0): more than 50%
% Infected Cells ([3]; 50 µg/mL): dead cells
Infection Index ([3]; 50 µg/mL): dead cells
nº Amastigotes/Infected Cell ([3]; 50 µg/mL): dead cells
% Infected Cells ([3]; 100 µg/mL): dead cells
Infection Index ([3]; 100 µg/mL): dead cells
nº Amastigotes/Infected Cell ([3]; 100 µg/mL): dead cells
